Assay results taken from patent US11773368B2, “Culture method for differentiating primordial germ cells into functionally mature oocytes” (TOKYO UNIVERSITY OF AGRICULTURE, priority 2015, dated 2023).

Experiments:
Format in all cases: cell-based, mouse
[1] = tested on: secondary follicles from in vitro cultured gonads; assay: In vitro growth culture of secondary follicle
Protocol: The secondary follicles obtained by the in vitro organ culture of the gonads from the fetuses was processed for in vitro growth culture. […] In this example, the culture was performed with the medium supplemented with PVP which is the high-molecular-weight compound. Furthermore, the inventor found out that oocytes can develop to functional eggs by dissociating a part of the cell layers between a granulosa cell layer and a thecal cell layer which constitute a secondary follicle. Accordingly, in this example, the in vitro culture of the follicle includes a step of partial dissociation between the granulosa cell layer and the thecal cell layer. More concretely, the in vitro culture of the follicle was performed as follows.
After the culture of “1. In vitro organ culture of gonad” for 17 days mentioned above, the cultured gonads (ovaries) were transferred to L15 medium and the secondary follicles formed in the gonads were isolated from the gonads, using a fine Tungsten needle. The secondary follicles were further cultured in α-MEM supplemented with 2% (w/v) PVP, 5% FBS, and 0.1 IU/mL FSH (FOLLISTIM Injection 50; MSD). The secondary follicles were cultured on a Millicell membrane (0.4-μm pore size, 27-mm diameter; Merck Millipore) in a 35-mm culture dish (Falcon, Corning). On day 3 of the culture, the secondary follicles were transferred to 0.1% collagenase type I (Worthington Biochemicals) containing L15 medium and treated for 15 min at 37° C. Then, the theca cell layer of the secondary follicles was removed by pipetting with a pulled fine-glass capillary. Fifty to 60 secondary follicles were cultured on Transwell®-COL or Millicell membranes for another 9 to 13 days at 37° C. in the medium under 5% CO2 and 95% air. The inside and outside of the membrane insert were filled with 1 mL and 2 mL medium, respectively. Approximately half the medium in each well was replaced with fresh medium every other day.

[2] = tested on: ovaries cultured for 17 days; assay: Histological analysis of ovary obtained by in vitro culture (H&E, laminin immunofluorescence)
Protocol: The ovaries cultured for 17 days in (i) FBS group or (v) FBS/10 μM ICI group and the ovaries from female mouse at 10 days after birth were processed for hematoxylin-eosin staining and laminin immunofluorescence staining.
Concretely, the ovaries were fixed for 4 hours at room temperature in 1% paraformaldehyde (PFA)/0.1% glutaraldehyde in 0.05 M phosphate buffer. For H&E staining, the ovaries were embedded in paraffin blocks after a routine protocol, and 4-μm-thick serial sections were prepared. After H&E staining, sections were observed under an IX71 microscope (Olympus). For laminin immunofluorescence staining, ovaries were cut into four to eight pieces, and the tissue sections were incubated for 3 days at 4° C. with an anti-laminin rabbit polyclonal antibody (Abcam) at a dilution of 1:100. Then the tissue sections of the ovaries were incubated for 3 days at 4° C. with an Alexa Fluor 488-conjugated goat anti-rabbit IgG at a dilution of 1:500 (Molecular Probes, Thermo Fisher Scientific Inc.). The obtained tissue sections of the ovaries were further processed for 4′,6-diamidino-2-phenylindole (DAPI; Life Technologies) staining. The tissue sections of the ovaries were observed under Zeiss LSM 710 confocal microscope.

[3] = tested on: cumulus-oocyte complexes (COCs); assay: In vitro maturation to egg
Protocol: The cumulus-oocyte complexes (COCs) were collected from the secondary follicles obtained by “3. In vitro growth culture of secondary follicle” described above. Then, COCs were cultured with α-MEM containing 5% FBS, 0.1 IU/mL FSH, 1.2 IU/mL chorionic gonadotropin (Gonatropin, ASKA Pharmaceutical), and […] (Gibco, Thermo Fisher Scientific Inc.) for 17 hours. Control COCs were collected from adult female mice 44 hours after the injection with equine CG (Serotropin; ASKA Pharmaceutical). The obtained COCs obtained from the adult female mice, in vivo-derived COCs, were cultured with α-MEM containing 5% FBS, 0.1 IU/mL FSH, 1.2 IU/mL chorionic gonadotropin, and 4 ng/mL epidermal growth factor in the same way to in vitro-derived COCs. As a result of in vitro maturation, in (ii) SPS group, (iv) FBS/SPS group, and (v) FBS/ICI group, 77 to 95% oocytes released the first polar body after 17 hours and became MII oocytes (FIGS. 11b and c).

[4] = FBS/1 μM ICI group (ICI day 5-11)
[5] = FBS/1 μM ICI group (ICI day 5-11), 19 cultured gonads
[6] = FBS/5 μM ICI group (ICI day 5-11)
[7] = FBS/5 μM ICI group (ICI day 5-11), 6 cultured gonads
[8] = FBS/10 μM ICI group (ICI day 5-11)
[9] = FBS/10 μM ICI group (ICI day 5-11), 6 cultured gonads
[10] = Vitrification FBS/1 μM ICI (vitrified-warmed gonads)
[11] = Vitrification FBS/1 μM ICI (vitrified-warmed gonads), 4 cultured gonads

C[C@]12CC[C@@H]3c4ccc(O)cc4C[C@@H](CCCCCCCCC[S+]([O-])CCCC(F)(F)C(F)(F)F)[C@H]3[C@@H]1CC[C@@H]2O (stereo partly drawn) [ICI, 7α, 17β-[9-([4,4,5,5,5-pentafluoropentyl]sulfinyl)nonyl]estra-1,3,5(10)-triene-3,17-diol]
No. of collected COCs, proportion to the number of collected follicles [1, 4]: 53.0% | No. of collected COCs [1, 5]: 340 | No. of collected COCs, proportion to the number of collected follicles [1, 6]: 57.1% | No. of collected COCs [1, 7]: 178 | No. of collected COCs, proportion to the number of collected follicles [1, 8]: 55.6% | No. of collected COCs [1, 9]: 281 | average diameter of the oocytes obtained by the in vitro culture ([1]; FBS/10 μM ICI group, n=85): 80.0 μm | No. of collected COCs, proportion to the number of collected follicles [1, 10]: 68.4% | No. of collected COCs [1, 11]: 39 | laminin localization (immunofluorescence) ([2]; (v) FBS/10 μM ICI group, day 17): laminin is circularly localized around the follicle | multioocyte follicle (multiple oocytes in one follicle) ([2]; (v) FBS/ICI group, FIG. 5b): very few | No. of oocytes matured into MII, proportion to the number of collected follicles [3, 4]: 50.1% | No. of oocytes matured into MII [3, 5]: 321 | No. of oocytes matured into MII, proportion to the number of collected follicles [3, 6]: 53.8% | No. of oocytes matured into MII [3, 7]: 168 | No. of oocytes matured into MII, proportion to the number of collected follicles [3, 8]: 50.7% | No. of oocytes matured into MII [3, 9]: 256 | No. of oocytes matured into MII, proportion to the number of collected follicles [3, 10]: 64.9% | No. of oocytes matured into MII [3, 11]: 37
